Measured values reported in patent US12441726B2, “Compounds and uses thereof” (Foghorn Therapeutics Inc., priority 2020, dated 2025).

Tests used:
BRG-1 = BRG-1 (Homo sapiens, UniProt P51532); assay: ATPase catalytic activity assay (ADP-Glo), BRG-1; settings: for Emax: 1 h, read-out: BRG1 Max % Inhibition, ADP-Glo, 30 nM BRG-1, 400 μM ATP
BRM = BRM (Homo sapiens, UniProt P51531); assay: ATPase catalytic activity assay (ADP-Glo), BRM; settings: 30 nM BRM, 400 μM ATP; for IC50: BRM ATPase: IC50 (uM)
Sequence of BRM (P51531 whole entry): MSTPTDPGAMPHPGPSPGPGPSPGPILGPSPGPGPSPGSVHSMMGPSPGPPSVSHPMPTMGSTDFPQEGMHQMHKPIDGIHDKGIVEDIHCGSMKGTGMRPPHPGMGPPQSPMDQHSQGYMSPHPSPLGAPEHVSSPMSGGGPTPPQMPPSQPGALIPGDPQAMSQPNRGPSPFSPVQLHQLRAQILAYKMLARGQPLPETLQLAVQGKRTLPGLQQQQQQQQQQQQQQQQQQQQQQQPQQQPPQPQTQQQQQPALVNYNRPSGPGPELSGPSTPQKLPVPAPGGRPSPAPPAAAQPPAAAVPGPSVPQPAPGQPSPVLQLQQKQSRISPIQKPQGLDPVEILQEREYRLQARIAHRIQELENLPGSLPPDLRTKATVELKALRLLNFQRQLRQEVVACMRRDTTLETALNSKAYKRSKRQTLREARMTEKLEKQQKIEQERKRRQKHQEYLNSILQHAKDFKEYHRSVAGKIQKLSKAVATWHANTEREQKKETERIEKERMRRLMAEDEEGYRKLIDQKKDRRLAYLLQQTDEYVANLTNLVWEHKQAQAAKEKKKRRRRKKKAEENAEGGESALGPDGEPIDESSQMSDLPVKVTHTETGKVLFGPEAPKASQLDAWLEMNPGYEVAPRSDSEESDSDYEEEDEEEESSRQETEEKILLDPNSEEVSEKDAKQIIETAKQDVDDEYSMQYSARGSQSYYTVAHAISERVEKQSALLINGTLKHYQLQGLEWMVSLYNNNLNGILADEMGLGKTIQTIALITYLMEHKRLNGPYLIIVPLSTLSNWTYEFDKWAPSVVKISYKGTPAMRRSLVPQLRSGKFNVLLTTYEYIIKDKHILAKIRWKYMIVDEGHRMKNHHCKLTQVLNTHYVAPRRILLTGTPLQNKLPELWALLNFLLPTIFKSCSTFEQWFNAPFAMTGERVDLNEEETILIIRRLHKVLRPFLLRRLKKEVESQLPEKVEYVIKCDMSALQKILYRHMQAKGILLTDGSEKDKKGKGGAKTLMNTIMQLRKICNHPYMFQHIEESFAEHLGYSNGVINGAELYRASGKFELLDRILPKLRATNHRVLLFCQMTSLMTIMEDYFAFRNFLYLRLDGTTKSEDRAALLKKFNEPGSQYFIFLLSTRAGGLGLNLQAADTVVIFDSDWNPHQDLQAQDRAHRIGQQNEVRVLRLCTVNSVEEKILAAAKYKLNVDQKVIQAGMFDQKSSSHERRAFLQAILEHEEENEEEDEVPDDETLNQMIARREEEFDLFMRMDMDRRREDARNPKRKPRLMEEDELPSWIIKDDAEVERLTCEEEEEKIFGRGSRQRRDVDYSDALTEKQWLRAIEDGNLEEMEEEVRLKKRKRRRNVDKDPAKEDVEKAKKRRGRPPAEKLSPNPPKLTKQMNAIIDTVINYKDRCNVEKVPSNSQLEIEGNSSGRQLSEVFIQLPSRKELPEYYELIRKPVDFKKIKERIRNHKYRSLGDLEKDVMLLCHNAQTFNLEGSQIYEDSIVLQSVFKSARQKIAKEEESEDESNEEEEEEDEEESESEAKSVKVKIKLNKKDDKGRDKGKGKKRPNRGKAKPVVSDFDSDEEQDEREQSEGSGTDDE

Sequence of BRG-1 (P51532 whole entry): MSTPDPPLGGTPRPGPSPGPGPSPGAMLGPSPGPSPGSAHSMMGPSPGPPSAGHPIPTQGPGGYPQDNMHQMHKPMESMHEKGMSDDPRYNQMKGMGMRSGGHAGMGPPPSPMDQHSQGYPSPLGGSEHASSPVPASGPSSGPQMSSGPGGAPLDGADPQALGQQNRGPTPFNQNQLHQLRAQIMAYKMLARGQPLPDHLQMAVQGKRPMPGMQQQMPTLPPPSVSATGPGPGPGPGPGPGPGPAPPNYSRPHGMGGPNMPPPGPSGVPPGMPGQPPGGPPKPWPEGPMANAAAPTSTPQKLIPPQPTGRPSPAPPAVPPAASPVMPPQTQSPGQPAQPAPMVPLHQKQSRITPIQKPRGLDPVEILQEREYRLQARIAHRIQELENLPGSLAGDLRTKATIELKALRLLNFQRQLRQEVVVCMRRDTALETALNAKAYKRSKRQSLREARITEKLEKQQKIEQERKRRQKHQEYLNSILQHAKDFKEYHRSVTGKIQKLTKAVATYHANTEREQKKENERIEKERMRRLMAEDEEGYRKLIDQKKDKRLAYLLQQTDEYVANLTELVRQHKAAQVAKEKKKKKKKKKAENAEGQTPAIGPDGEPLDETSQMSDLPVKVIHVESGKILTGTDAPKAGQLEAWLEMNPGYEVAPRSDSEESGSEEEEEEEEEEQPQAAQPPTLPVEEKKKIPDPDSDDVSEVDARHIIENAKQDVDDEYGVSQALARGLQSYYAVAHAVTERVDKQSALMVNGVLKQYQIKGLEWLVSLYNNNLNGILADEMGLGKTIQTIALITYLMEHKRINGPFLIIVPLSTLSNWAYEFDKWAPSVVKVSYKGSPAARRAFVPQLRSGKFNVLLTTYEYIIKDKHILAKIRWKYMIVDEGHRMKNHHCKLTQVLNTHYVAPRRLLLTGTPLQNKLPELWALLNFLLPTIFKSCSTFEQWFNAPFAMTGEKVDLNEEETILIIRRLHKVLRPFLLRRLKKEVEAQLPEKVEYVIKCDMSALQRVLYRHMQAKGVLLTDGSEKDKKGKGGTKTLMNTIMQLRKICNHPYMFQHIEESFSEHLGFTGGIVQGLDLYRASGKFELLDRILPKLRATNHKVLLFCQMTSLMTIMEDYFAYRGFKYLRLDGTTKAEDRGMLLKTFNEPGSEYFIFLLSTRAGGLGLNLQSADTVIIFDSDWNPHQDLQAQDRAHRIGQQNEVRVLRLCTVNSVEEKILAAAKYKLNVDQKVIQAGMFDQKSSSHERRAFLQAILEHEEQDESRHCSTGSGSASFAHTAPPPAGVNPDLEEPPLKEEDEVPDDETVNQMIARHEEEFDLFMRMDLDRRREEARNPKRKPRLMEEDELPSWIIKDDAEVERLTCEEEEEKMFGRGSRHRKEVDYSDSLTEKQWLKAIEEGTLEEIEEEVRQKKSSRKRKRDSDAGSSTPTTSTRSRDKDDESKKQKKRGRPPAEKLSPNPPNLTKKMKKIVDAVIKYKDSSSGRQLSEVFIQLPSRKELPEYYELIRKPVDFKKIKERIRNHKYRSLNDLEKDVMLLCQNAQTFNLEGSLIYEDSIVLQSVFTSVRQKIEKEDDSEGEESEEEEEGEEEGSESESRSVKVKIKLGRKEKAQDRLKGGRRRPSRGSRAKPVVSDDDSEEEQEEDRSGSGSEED

SMILES | IC50 (BRG-1) | Emax (BRG-1) | BRM Max % Inhibition (BRM) | IC50 (BRM)
COc1cc(C)ccc1-c1ccc2cnc(CNC(=O)c3ccc4c(c3)[C@](C)(C#N)COC4)cc2n1 [Compound 144] | 0.1 to 0.5 µM | 95% | 102% | < 0.1 µM
C[C@@]1(C#N)COCc2ccc(C(=O)NCc3cc4nc(-c5cn(C6COC6)nc5C(F)F)ccc4cn3)cc21 [Compound 145] | 0.5 to 1 µM | 65% | 94% | 0.1 to 0.5 µM
COc1cc(N2CCC2)ccc1-c1ccc2cnc(CNC(=O)c3ccc4c(c3)[C@](C)(C#N)COC4)cc2n1 [Compound 146] | 0.1 to 0.5 µM | 80% | 98% | 0.1 to 0.5 µM
C[C@@]1(C#N)COCc2ccc(C(=O)NCc3cc4nc(-c5cccc6c5ccn6CC(F)F)ccc4cn3)cc21 [Compound 147] | 0.1 to 0.5 µM | 90% | 101% | < 0.1 µM
COc1cc(C(C)(C)C)ccc1-c1ccc2cnc(CNC(=O)c3ccc4c(c3)[C@](C)(C#N)COC4)cc2n1 [Compound 148] | > 1 µM | 32% | 90% | 0.1 to 0.5 µM
CN1CCCc2c(-c3ccc4cnc(CNC(=O)c5ccc6c(c5)[C@](C)(C#N)COC6)cc4n3)cccc21 [Compound 149] | 0.5 to 1 µM | 67% | 95% | 0.1 to 0.5 µM
Cn1cc2c(-c3ccc4cnc(CNC(=O)c5ccc6c(c5)[C@](C)(C#N)COC6)cc4n3)cccc2n1 [Compound 151] | 0.5 to 1 µM | 56% | 93% | 0.1 to 0.5 µM
COc1ccc(C)cc1-c1ccc2cnc(CNC(=O)c3ccc4c(c3)[C@](C)(C#N)COC4)cc2n1 [Compound 153] | > 1 µM | 37% | 87% | 0.1 to 0.5 µM
C[C@@]1(C#N)COCc2ccc(C(=O)NCc3cc4nc(-c5cn(C6COC6)nc5OC(F)F)ccc4cn3)cc21 [Compound 154] | 0.1 to 0.5 µM | 95% | 101% | < 0.1 µM
COc1cc(N2CCOCC2)ccc1-c1ccc2cnc(CNC(=O)c3ccc4c(c3)[C@](C)(C#N)COC4)cc2n1 [Compound 155] | 0.5 to 1 µM | 67% | 96% | 0.1 to 0.5 µM
COc1cc(Cl)ccc1-c1ccc2cnc(CNC(=O)c3ccc4c(c3)[C@](C)(C#N)COC4)cc2n1 [Compound 156] | 0.1 to 0.5 µM | 97% | 99% | < 0.1 µM
COc1cc(C(F)F)ccc1-c1ccc2cnc(CNC(=O)c3ccc4c(c3)[C@](C)(C#N)COC4)cc2n1 [Compound 157] | 0.1 to 0.5 µM | 96% | 99% | < 0.1 µM
C[C@@]1(C#N)COCc2ccc(C(=O)NCc3cc4nc(-c5ccnc(C6COC6)n5)ccc4cn3)cc21 [Compound 158] | 0.5 to 1 µM | 75% | 96% | 0.1 to 0.5 µM
C[C@@]1(C#N)COCc2ccc(C(=O)NCc3cc4nc(-c5cccc6c5ccn6CCO)ccc4cn3)cc21 [Compound 159] | 0.1 to 0.5 µM | 95% | 99% | < 0.1 µM
C[C@@]1(F)COCc2ccc(C(=O)NCc3cc4nc(-c5cccc(C6(O)COC6)n5)ccc4cn3)cc21 [Compound 160] | 0.5 to 1 µM | 62% | 93% | 0.1 to 0.5 µM
COc1nn(C)cc1-c1cnc2cnc(CNC(=O)c3ccc4c(c3)[C@](C)(F)COC4)cc2n1 [Compound 161] | 0.5 to 1 µM | 53% | 94% | 0.1 to 0.5 µM
Cn1nc(-c2ccc3cnc(CNC(=O)c4ccc5c(c4)[C@](C)(C#N)COC5)cc3n2)cc1C(F)F [Compound 162] | 0.5 to 1 µM | 59% | 91% | 0.1 to 0.5 µM
COC(C)(C)C#Cc1cccc(-c2ccc3cnc(CNC(=O)c4ccc5c(c4)[C@](C)(C#N)COC5)cc3n2)n1 [Compound 163] | 0.1 to 0.5 µM | 87% | 98% | < 0.1 µM
C[C@@]1(C#N)COCc2ccc(C(=O)NCc3cc4nc(-c5cc6ccccn6n5)ccc4cn3)cc21 [Compound 164] | 0.5 to 1 µM | 68% | 92% | 0.1 to 0.5 µM
C[C@@]1(C#N)COCc2ccc(C(=O)NCc3cc4nc(-c5ccc6ccc(=O)n(C7CC7)c6n5)ccc4cn3)cc21 [Compound 165] | 0.1 to 0.5 µM | 80% | 97% | < 0.1 µM
C[C@@]1(C#N)COCc2ccc(C(=O)NCc3cc4nn(-c5cccc(N6CCC6)n5)cc4cn3)cc21 [Compound 166] | > 1 µM | 40% | 91% | 0.1 to 0.5 µM
